Like-named read-outs stand apart in the source and are kept apart here. Marks after values point to notes of the source that are not given here.
How the values were obtained:
[1] = system: NAD(P)H: quinone oxidoreductase-1; parameters: method as in PMID 31527169; conditions: results in redox cycling and ROS generation; cited from earlier work
[2] = parameters: method as in doi:10.1200/JCO.2018.36.15_suppl.4110, doi:10.1200/JCO.2017.35.4_suppl.593; conditions: napabucasin 240 mg BID in combination with standard treatment; cited from earlier work
[3] = Plasma and urine pharmacokinetics of napabucasin in patients; type: in vivo, Japanese patients; conditions: for AUC(0-t) / AUC(0-inf) / Cmax / half-life / Tmax: human, oral; for AUC(0-t) / AUC(0-inf) / Cmax / half-life / Tmax / CL/F, range / CL/F, range (apparent total clearance at steady state): plasma; for AUC(0-inf): read-out: AUC0–∞, range; for Cmax: read-out: Cmax, range; for half-life: read-out: t1/2, range; for Tmax: read-out: tmax, range
Experimental: Blood samples for PK were obtained on Days 1, 2, 8, and 15 of Cycle 1 and Days 29 and 30 of Cycle 2. On Day 1 of Cycle 1 and Day 29 of Cycle 2, blood samples were collected before the morning dose and at 2, 4, 6, 8, 10, 12, and 24 h after the morning dose of napabucasin; for samples collected 24 h following the morning dose of napabucasin on Day 1 and Day 29, collection occurred before the morning dose was administered on Day 2 and Day 30, respectively. On Days 8 and 15 of Cycle 1, blood samples were taken 168 and 336 h after the morning dose on Day 1. Urine samples were taken on Days 1 and 2 of Cycle 1 and Days 29 and 30 of Cycle 2. Samples were collected immediately after the morning dose on Days 1 and 29 through to immediately before the morning dose the next day. Plasma napabucasin concentration was measured by Frontage Laboratories and CMIC Pharma Science Co., Ltd and urine napabucasin concentration was measured by CMIC Pharma Science Co., Ltd.
(§1) The safety and antitumor activity (intention-to-treat [ITT]) analysis populations included all patients that received at least one dose of napabucasin. The DLT analysis population included all patients that received at least one dose of napabucasin with at least 80% compliance ([number of capsules actually ingested/number of capsules that should have been ingested per dose […]] × 100) during the DLT evaluation period, and those patients who experienced DLT during the evaluation period regardless of compliance. The PK population included all patients that received at least one dose of napabucasin and had plasma napabucasin concentration data for at least one-time point after the first dose of napabucasin.

advanced solid tumors = assay: Antitumor activity (RECIST 1.1 tumor response, PFS, OS, STAT3 SNP genotype); type: in vivo, Japanese patients
Experimental: (§2) Assessments of antitumor activity were objective tumor response, median progression-free survival (PFS) and median overall survival (OS). Tumor response was evaluated according to RECIST 1.1 [21]. Median PFS was defined as the time from the day of the first dose of napabucasin to the date of progressive disease (PD), if neither was observed, the patient was to be censored at the last assessment of tumor response. Median OS was defined as the time from the first dose of napabucasin to the date of death from any cause. Patients who were still alive at the final observation were to be censored at the date they were last known to be alive. STAT3 single nucleotide polymorphism (SNP) genotyping was carried out using DNA extracted from whole blood samples to assess tumor response, median PFS, and median OS. Immunohistochemistry (IHC), mutation analysis (Oncomine Comprehensive Assay), and microsatellite instability analyses were performed in tumor tissue samples obtained from patients who provided additional consent to assess the relationship between specific biomarkers and the antitumor activity of napabucasin. IHC staining of phosphorylated STAT3 (pSTAT3) was carried out on archived tumor samples which were collected pre-treatment, and de novo lesions during and post-treatment were also collected, according to the protocol of a recent Phase 3 study. Positive pSTAT3 staining was defined as cancer cell nuclear staining ≥ 5% plus a stroma staining score of at least 2. The biomarker testing facility was responsible for IHC staining and storage of tumor samples. If consent to a genetic test was withdrawn, samples and associated analyses were discarded.
as §1

[4] = system: phosphorylated STAT3 (pSTAT3); assay: pSTAT3 IHC staining of tumor samples; type: in vivo, Japanese patients; conditions: one colorectal cancer patient
Experimental: as §2

prostate cancer cell = system: prostate cancer cell; parameters: method as in PMID 26899963; conditions: in vitro; cited from earlier work
CSCs = system: CSCs; parameters: method as in PMID 25605917; conditions: cited from earlier work
[5] = 240 mg, Cycle 1 (Day 1), Cohort 1 (480 mg/day, 240 mg BID), n = 3
[6] = 240 mg, Cycle 2 (Day 29), Cohort 1 (480 mg/day, 240 mg BID), n = 3
[7] = 480 mg, Cycle 1 (Day 1), Cohort 2 (960 mg/day, 480 mg BID), n = 4
[8] = 480 mg, Cycle 2 (Day 29), Cohort 2 (960 mg/day, 480 mg BID), n = 3
[9] = 720 mg, Cycle 1 (Day 1), Cohort 3 (1440 mg/day, 720 mg BID), n = 7
[10] = 720 mg, Cycle 2 (Day 29), Cohort 3 (1440 mg/day, 720 mg BID), n = 5
[11] = Post-napabucasin: Day 26 from the first dose, treatment ongoing

CC(=O)c1cc2c(o1)C(=O)c1ccccc1C2=O [napabucasin]
Bioactivation [1]: bioactivated by NAD(P)H: quinone oxidoreductase-1 | DLTs [2]: no DLTs | AUC(0-t) ([3]; 240 mg, Cycle 1 (Day 1), Cohort 1 (480 mg/day, 240 mg BID), n = 3, read-out: AUC0–12, range): 1370 to 2990 ng·h/mL | AUC(0-t) ([3]; 240 mg, Cycle 1 (Day 1), Cohort 1 (480 mg/day, 240 mg BID), n = 3, read-out: AUC0–24, range): 2020 to 3800 ng·h/mL | AUC(0-inf) [3, 5]: 3650 to 4060 ng·h/mL | Cmax [3, 5]: 194 to 468 ng/mL | half-life [3, 5]: 5 to 25 h | Tmax [3, 5]: 4 to 6 h | AUC(0-t) ([3]; 240 mg, Cycle 2 (Day 29), Cohort 1 (480 mg/day, 240 mg BID), n = 3, read-out: AUC0–12, range): 2190 to 4940 ng·h/mL | AUC(0-t) ([3]; 240 mg, Cycle 2 (Day 29), Cohort 1 (480 mg/day, 240 mg BID), n = 3, read-out: AUC0–24, range): 2510 to 6180 ng·h/mL | AUC(0-inf) [3, 6]: 2570 to 6370 ng·h/mL | Cmax [3, 6]: 472 to 652 ng/mL | half-life [3, 6]: 4 to 5 h | Tmax [3, 6]: 4 to 10 h | AUC(0-t) ([3]; 480 mg, Cycle 1 (Day 1), Cohort 2 (960 mg/day, 480 mg BID), n = 4, read-out: AUC0–12, range): 984 to 4780 ng·h/mL | AUC(0-t) ([3]; 480 mg, Cycle 1 (Day 1), Cohort 2 (960 mg/day, 480 mg BID), n = 4, read-out: AUC0–24, range): 1200 to 6360 ng·h/mL | AUC(0-inf) [3, 7]: 1410 to 7360 ng·h/mL | Cmax [3, 7]: 199 to 719 ng/mL | half-life [3, 7]: 7 to 8 h | Tmax [3, 7]: 2 to 6 h | AUC(0-t) ([3]; 480 mg, Cycle 2 (Day 29), Cohort 2 (960 mg/day, 480 mg BID), n = 3, read-out: AUC0–12, range): 2560 to 2760 ng·h/mL | AUC(0-t) ([3]; 480 mg, Cycle 2 (Day 29), Cohort 2 (960 mg/day, 480 mg BID), n = 3, read-out: AUC0–24, range): 2750 to 2880 ng·h/mL | AUC(0-inf) [3, 8]: 2750 to 2880 ng·h/mL | Cmax [3, 8]: 391 to 477 ng/mL | half-life [3, 8]: 2 to 3 h | Tmax [3, 8]: 2 to 10 h | AUC(0-t) ([3]; 720 mg, Cycle 1 (Day 1), Cohort 3 (1440 mg/day, 720 mg BID), n = 7, read-out: AUC0–12, range): 3440 to 11000 ng·h/mL | AUC(0-t) ([3]; 720 mg, Cycle 1 (Day 1), Cohort 3 (1440 mg/day, 720 mg BID), n = 7, read-out: AUC0–24, range): 3920 to 14500 ng·h/mL | AUC(0-inf) [3, 9]: 3870 to 14800 ng·h/mL | Cmax [3, 9]: 641 to 2070 ng/mL | half-life [3, 9]: 3 to 12 h | Tmax [3, 9]: 2 to 6 h | AUC(0-t) ([3]; 720 mg, Cycle 2 (Day 29), Cohort 3 (1440 mg/day, 720 mg BID), n = 5, read-out: AUC0–12, range): 3650 to 15400 ng·h/mL | AUC(0-t) ([3]; 720 mg, Cycle 2 (Day 29), Cohort 3 (1440 mg/day, 720 mg BID), n = 5, read-out: AUC0–24, range): 4480 to 20200 ng·h/mL | AUC(0-inf) [3, 10]: 4740 to 123000 ng·h/mL | Cmax [3, 10]: 596 to 1930 ng/mL | half-life [3, 10]: 5 to 192 h | Tmax [3, 10]: 2 to 4 h | Difference in Cmax and AUC0–12 between doses ([3]; plasma, 480, 960, 1440 mg/day): no clear difference between doses | CL/F, range ([3]; Cycle 1 (Day 1), Cohort 1 (480 mg/day, 240 mg BID), n = 3): 59 to 66 L/h | CL/F, range ([3]; Cycle 1 (Day 1), Cohort 2 (960 mg/day, 480 mg BID), n = 4): 65 to 341 L/h | CL/F, range ([3]; Cycle 1 (Day 1), Cohort 3 (1440 mg/day, 720 mg BID), n = 7): 49 to 186 L/h | CL/F, range (apparent total clearance at steady state) ([3]; Cycle 2 (Day 29), Cohort 1 (480 mg/day, 240 mg BID), n = 3): 49–109^a L/h | CL/F, range (apparent total clearance at steady state) ([3]; Cycle 2 (Day 29), Cohort 2 (960 mg/day, 480 mg BID), n = 3): 174–188^a L/h | CL/F, range (apparent total clearance at steady state) ([3]; Cycle 2 (Day 29), Cohort 3 (1440 mg/day, 720 mg BID), n = 5): 47–197^a L/h | Accumulation in plasma ([3]; repeated BID dosing, Cycle 1 to Cycle 2): no abnormal accumulation was observed | Difference in urinary PK between cohorts ([3]; urine, 480, 960, 1440 mg/day): no clear differences were observed between cohorts | Median OS (advanced solid tumors; Cohort 1 (480 mg/day)): 8.28 months | Median PFS (advanced solid tumors; Cohort 1 (480 mg/day)): 1.87 months | Median OS (advanced solid tumors; Cohort 2 (960 mg/day)): 5.03 months | Median PFS (advanced solid tumors; Cohort 2 (960 mg/day)): 1.76 months | Median OS (advanced solid tumors; Cohort 3 (1440 mg/day)): 5.68 months | Median PFS (advanced solid tumors; Cohort 3 (1440 mg/day)): 1.45 months | Antitumor activity by STAT3 SNP genotype (advanced solid tumors; DNA from whole blood, G/G, C/C, C/G genotypes): no difference in antitumor activity between G/G, C/C, and C/G genotypes | Median OS (advanced solid tumors; ITT population): 5.83 months | Median PFS (advanced solid tumors; ITT population): 1.71 months | Patients with progressive disease (PD) (advanced solid tumors; RECIST 1.1, 14 patients): 12 patients | Patients with stable disease (SD) as best overall tumor response (advanced solid tumors; RECIST 1.1, 14 patients, both colorectal cancer): two | Duration of SD (advanced solid tumors; one patient in Cohort 1 (480 mg/day)): 56 days | Duration of SD (advanced solid tumors; one patient in Cohort 3 (1440 mg/day)): 82 days | Proportion of patients who achieved SD (advanced solid tumors; this study): 14% | pSTAT3 status ([4]; post-napabucasin (during treatment), positive = nuclear staining ≥ 5% plus stroma score at least 2): positive | % Nuclear tumor positive (pSTAT3 IHC) [4, 11]: 10% | H-score (pSTAT3 IHC) [4, 11]: 15 | Microenvironment % positive (pSTAT3 IHC) [4, 11]: 50% | Microenvironment intensity (pSTAT3 IHC) [4, 11]: 2 | Percent nuclear tumor staining 0 (pSTAT3 IHC) [4, 11]: 90% | Percent nuclear tumor staining 1 + (pSTAT3 IHC) [4, 11]: 5% | Percent nuclear tumor staining 2 + (pSTAT3 IHC) [4, 11]: 5% | Percent nuclear tumor staining 3 + (pSTAT3 IHC) [4, 11]: 0% | Effect on prostate cancer cells (prostate cancer cell): inhibited prostate cancer cell survival, motility, and tumorigenesis in vitro | Selectivity for CSCs (CSCs): selectively targets CSCs, leaving normal hematopoietic stem cells unaffected

— article PMC7188713, “Phase 1 study of napabucasin, a cancer stemness inhibitor, in patients with advanced solid tumors” (Cancer Chemotherapy and Pharmacology, 2020)
